The record followed here is ChEMBL document CHEMBL1667784, “Synthesis and structure-activity relationship of 2-thiopyrimidine-4-one analogs as antimicrobial and anticancer agents” (Eur J Med Chem, 2011).

Assay [1] concerns HepG2. Put plainly: Cytotoxicity against human HepG2 cells after 3 days by MTT assay. The format is functional, cell-based. Particulars: HepG2, 72 h. In general terms: Tetrazolium dyes change colour on reduction, which living cells bring about.
The test system of assay [2] is Moraxella catarrhalis. Put plainly: Antimicrobial activity against Branhamella catarrhalis assessed as growth inhibition at 128 ug/ml by agar dilution method. The format is functional.
Assay [3] has as its system HL-60. Put plainly: Cytotoxicity against human HL60 cells after 3 days by MTT assay. The format is functional, cell-based. The settings on record: HL-60, 72 h.
For assay [4], the system named is MDA-MB-231. As to the kind of experiment: Cytotoxicity against human MDA-MB-231 cells after 3 days by MTT assay. Particulars: MDA-MB-231, 72 h. The format is functional, cell-based.
Assay [5] relates to T47D. As to the kind of experiment: Cytotoxicity against human T47D cells after 3 days by MTT assay. The format is functional, cell-based. Particulars: 72 h.
In assay [6] the test system is Plasmodium falciparum. Put plainly: Antimalarial activity against chloquine-resistant Plasmodium falciparum T9.94 infected in human erythrocyte assessed as decrease in parasite growth after 48 hrs by microscopy. The format is functional, organism-based. The settings on record: T9.94, 48 h.
For assay [7], the system named is H69AR. Put plainly: Cytotoxicity against human H69AR cells after 3 days by MTT assay. Particulars: 72 h. The format is functional, cell-based.
The test system of assay [8] is A549. As to the kind of experiment: Cytotoxicity against human A549 cells after 3 days by MTT assay. The format is functional, cell-based. Particulars: A549, 72 h.
The test system of assay [9] is P388. Put plainly: Cytotoxicity against mouse P388 cells after 3 days by MTT assay. The format is functional, cell-based. Particulars: P388, 72 h.
Assay [10] has as its system KB. As to the kind of experiment: Cytotoxicity against human KB cells after 3 days by MTT assay. The format is functional, cell-based. The settings on record: 72 h.
Assay [11] has as its system Streptococcus pyogenes. Put plainly: Antimicrobial activity against Streptococcus pyogenes assessed as growth inhibition at 128 ug/ml by agar dilution method. The format is functional. (In general: In agar dilution the substance is mixed into plates at graded concentrations.)
Assay [12] can be described thus: Cytotoxicity against human HuCCa1 cells after 3 days by MTT assay. The format is functional, cell-based. The settings on record: HuCC-A1, 72 h.
A short description of assay [13]: Cytotoxicity against human HCC-S102 cells after 3 days by MTT assay. Particulars: HCC-S102, 72 h. The format is functional, cell-based.
The test system of assay [14] is HeLa. Put plainly: Cytotoxicity against human HeLa cells after 3 days by MTT assay. Particulars: 72 h. The format is functional, cell-based.
Assay [15] deals with Neisseria mucosa. As to the kind of experiment: Antimicrobial activity against Neisseria mucosa assessed as growth inhibition at 128 ug/ml by agar dilution method. The format is functional.
The subject of assay [16] is Moraxella catarrhalis. Put plainly: Antimicrobial activity against Branhamella catarrhalis assessed as growth inhibition at 64 ug/ml by agar dilution method. The format is functional.
Assay [17] has as its system Candida albicans. Put plainly: Antifungal activity against Candida albicans assessed as growth inhibition at 128 ug/ml by agar dilution method. The format is functional.
Assay [18] deals with Streptococcus pyogenes. As to the kind of experiment: Antimicrobial activity against Streptococcus pyogenes assessed as growth inhibition at 10 ug/ml by agar dilution method. The format is functional.
In assay [19] the test system is Bacillus subtilis. Put plainly: Antimicrobial activity against Bacillus subtilis ATCC 6633 assessed as growth inhibition at 10 ug/ml by agar dilution method. The format is functional.
Assay [20] relates to Edwardsiella tarda. Put plainly: Antimicrobial activity against Edwardsiella tarda assessed as growth inhibition at 10 ug/ml by agar dilution method. The format is functional.
For assay [21], the system named is Neisseria mucosa. Put plainly: Antimicrobial activity against Neisseria mucosa assessed as growth inhibition at 10 ug/ml by agar dilution method. The format is functional.
In assay [22] the test system is Moraxella catarrhalis. As to the kind of experiment: Antimicrobial activity against Branhamella catarrhalis assessed as growth inhibition at 10 ug/ml by agar dilution method. The format is functional.
For assay [23], the system named is Staphylococcus epidermidis. Put plainly: Antimicrobial activity against Staphylococcus epidermidis ATCC 12228 assessed as growth inhibition at 10 ug/ml by agar dilution method. The format is functional.
Assay [24] relates to Staphylococcus aureus. Put plainly: Antimicrobial activity against Staphylococcus aureus ATCC 25923 assessed as growth inhibition at 10 ug/ml by agar dilution method. The format is functional.

Converted amounts (≈) assume the structure as drawn. Bounds are passed on as bounds.

`CCCCSc1nccc(=O)[nH]1`: the IC50 (in general, the point on the concentration scale where inhibition reaches its midpoint) was above 50 µg/mL in [1]; above 50 µg/mL in assay [3]; above 50 µg/mL in assay [4]; 5 µg/mL (≈ 27.1 µM) in assay [5]; 10 µM in assay [6]; above 50 µg/mL in [7]. In addition, the IC50 in assay [8] was above 50 µg/mL; in assay [9] it was above 50 µg/mL; in [10], 27 µg/mL (≈ 147 µM); in assay [12], above 50 µg/mL; in [13], above 50 µg/mL; in assay [14], above 50 µg/mL. Also, the inhibition (commonly the change of the read-out against control, counted positive when it falls) at 128 µg/mL in assay [2] stood at 100%; in [11] it was 25%; in [15] it was 25%.

In the case of `CCC(C)Sc1nccc(=O)[nH]1` (configuration not stated), the IC50 in assay [1] was above 50 µg/mL; in assay [6], 10 µM; in assay [8] it was above 50 µg/mL; in assay [12] it was above 50 µg/mL.

In the case of `O=c1ccnc(SCC2CCCCC2)[nH]1`, the IC50 in [1] was above 50 µg/mL; in assay [3], above 50 µg/mL; in assay [4], above 50 µg/mL; in [5], above 50 µg/mL; in assay [6], 10 µM; in assay [7], 50 µg/mL (≈ 223 µM). Further, the IC50 in [8] is above 50 µg/mL; in assay [9], 40.4 µg/mL (≈ 180 µM); in [10], above 50 µg/mL; in assay [12] it was above 50 µg/mL; in assay [13], above 50 µg/mL; in assay [14], above 50 µg/mL. Also, the results for the inhibition at 128 µg/mL in assay [11], in assay [17] and in [15] were 100%, 75% and 25%, respectively. For the same molecule, the inhibition at 64 µg/mL in [16] came to 100%.

For the molecule `O=c1ccnc(SCc2ccccc2)[nH]1`, the IC50 in [1] was above 50 µg/mL; in assay [3] it was above 50 µg/mL; in [4], above 50 µg/mL; in assay [5], above 50 µg/mL; in assay [6], 10 µM; in assay [7], above 50 µg/mL. Besides, the half-inhibitory concentration (IC50) in [8], in assay [9], in assay [10], in assay [12], in [13] and in assay [14] was above 50 µg/mL throughout. In addition, the inhibition at 128 µg/mL is 50% in [2] and 25% in assay [11].

For `O=c1ccnc(SC23CC4CC(CC(C4)C2)C3)[nH]1`, the IC50 in [1] was 32.5 µg/mL (≈ 124 µM); in assay [3] it was above 50 µg/mL; in assay [4], above 50 µg/mL; in assay [5], 32 µg/mL (≈ 122 µM); in [6] it was 10 µM; in assay [7] it was 35 µg/mL (≈ 133 µM). In addition, the IC50 in [8] was above 50 µg/mL; in assay [9], 36.9 µg/mL (≈ 141 µM); in assay [10] it was above 50 µg/mL; in [12] it was above 50 µg/mL; in assay [13], above 50 µg/mL; in assay [14], above 50 µg/mL. For the same molecule, the inhibition at 128 µg/mL in [2] came out at 75%; in [11], 25%; in assay [15], 25%.

`CC1(C)S[C@@H]2[C@H](NC(=O)[C@H](N)c3ccccc3)C(=O)N2[C@H]1C(=O)O` [AMPICILLIN]: the inhibition at 10 µg/mL in assay [18], in assay [19], in [20], in assay [21], in assay [22] and in [23] was 100% in each case. In assay [24], the inhibition at 10 µg/mL is 100%.

In the case of `COc1cc([C@@H]2c3cc4c(cc3[C@@H](O[C@@H]3O[C@@H]5CO[C@@H](C)O[C@H]5[C@H](O)[C@H]3O)[C@H]3COC(=O)[C@H]23)OCO4)cc(OC)c1O` [ETOPOSIDE], the IC50 in [1] was 21 µg/mL (≈ 35.7 µM); in assay [3] it was 0.85 µg/mL (≈ 1.44 µM); in [4] it was 0.24 µg/mL (≈ 0.408 µM); in assay [5] it was 0.05 µg/mL (≈ 0.085 µM); in [7] it was 30 µg/mL (≈ 51 µM); in assay [8] it was 0.6 µg/mL (≈ 1.02 µM). Moreover, the concentration for half-maximal inhibition (IC50) in assay [9] came to 0.12 µg/mL (≈ 0.204 µM); in [10], 0.25 µg/mL (≈ 0.425 µM); in [12], 4 µg/mL (≈ 6.8 µM); in [13], 6 µg/mL (≈ 10.2 µM); in assay [14], 0.38 µg/mL (≈ 0.646 µM).
